Assay results: patent publication US20080114080A1, “Compositions and Methods for the Treatment of Cystic Fibrosis and other Pulmonary Disorders” (priority 2006, published 2008)
Converted amounts (≈) assume the structure as drawn. Read-outs that look alike come from different tables or passages of the source.

Columns and labels:
[1] = recent report; cited from earlier work
[2] = tested on: rat colon epithelial cells; conditions: cited from earlier work
[3] = cited from earlier work
[4] = tested on: chemokine receptors (CXCR2/b); experiment: Cl- transport/efflux in Calu-3 cells, IL-8 via chemokine receptors; assay type: cell-based, human
[5] = biological target: mutant forms (ΔF508) of CFTR (Homo sapiens, UniProt P13569, DEL508-508); conditions: cited from earlier work
Chain of mutant forms (ΔF508) of CFTR (P13569 with tags, fused parts or gaps DEL508-508): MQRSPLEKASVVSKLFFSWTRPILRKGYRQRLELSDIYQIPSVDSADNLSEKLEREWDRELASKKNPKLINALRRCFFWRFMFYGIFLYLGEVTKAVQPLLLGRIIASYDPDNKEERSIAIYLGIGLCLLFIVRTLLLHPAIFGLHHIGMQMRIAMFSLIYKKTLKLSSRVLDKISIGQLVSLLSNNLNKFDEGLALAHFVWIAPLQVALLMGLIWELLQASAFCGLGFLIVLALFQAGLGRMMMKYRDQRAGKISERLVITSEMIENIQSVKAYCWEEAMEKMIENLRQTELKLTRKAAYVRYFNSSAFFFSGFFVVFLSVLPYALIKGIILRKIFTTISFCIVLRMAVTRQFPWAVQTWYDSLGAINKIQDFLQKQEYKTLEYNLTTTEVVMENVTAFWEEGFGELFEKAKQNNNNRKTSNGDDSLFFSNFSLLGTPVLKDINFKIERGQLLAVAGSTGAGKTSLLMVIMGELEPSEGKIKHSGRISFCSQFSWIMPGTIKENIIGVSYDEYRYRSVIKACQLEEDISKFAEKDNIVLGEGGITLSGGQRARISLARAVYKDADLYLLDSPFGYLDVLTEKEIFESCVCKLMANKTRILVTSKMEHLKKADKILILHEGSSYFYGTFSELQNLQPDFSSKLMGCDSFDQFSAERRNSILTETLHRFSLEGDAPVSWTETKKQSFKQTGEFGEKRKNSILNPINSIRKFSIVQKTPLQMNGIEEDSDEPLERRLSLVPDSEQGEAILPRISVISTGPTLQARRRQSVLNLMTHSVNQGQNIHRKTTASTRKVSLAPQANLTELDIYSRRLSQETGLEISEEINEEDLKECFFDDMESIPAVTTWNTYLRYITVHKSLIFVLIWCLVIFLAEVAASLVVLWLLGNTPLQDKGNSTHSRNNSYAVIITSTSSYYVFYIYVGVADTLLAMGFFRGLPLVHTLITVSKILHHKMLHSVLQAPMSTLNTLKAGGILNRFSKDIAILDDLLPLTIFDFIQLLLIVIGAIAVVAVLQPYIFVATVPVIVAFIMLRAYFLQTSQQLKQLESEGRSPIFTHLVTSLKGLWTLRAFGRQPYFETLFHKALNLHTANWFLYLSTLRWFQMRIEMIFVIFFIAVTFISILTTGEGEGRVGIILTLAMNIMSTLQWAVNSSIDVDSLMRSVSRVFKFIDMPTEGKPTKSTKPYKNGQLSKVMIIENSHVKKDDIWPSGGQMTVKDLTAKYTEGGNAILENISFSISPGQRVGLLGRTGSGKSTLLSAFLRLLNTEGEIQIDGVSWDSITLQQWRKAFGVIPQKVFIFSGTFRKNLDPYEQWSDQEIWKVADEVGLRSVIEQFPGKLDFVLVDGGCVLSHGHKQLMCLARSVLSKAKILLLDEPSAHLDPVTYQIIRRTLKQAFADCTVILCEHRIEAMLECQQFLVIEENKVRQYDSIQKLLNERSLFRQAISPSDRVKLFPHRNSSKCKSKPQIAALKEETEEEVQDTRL

[6] = tested on: adenylyl cyclase activity; experiment: adenylyl cyclase activity in Calu-3 cells; assay type: cell-based, human; conditions: FIG. 6
C5aR (CD88) = biological target: T1, C5aR (CD88) (Homo sapiens, UniProt P21730); experiment: Cl- efflux in Calu-3 cells, C5a via C5aR; assay type: cell-based
T1 construct: endogenous in cells; host or cells: Calu-3 (ATCC HTB-55)
T1 sequence (P21730 1-350): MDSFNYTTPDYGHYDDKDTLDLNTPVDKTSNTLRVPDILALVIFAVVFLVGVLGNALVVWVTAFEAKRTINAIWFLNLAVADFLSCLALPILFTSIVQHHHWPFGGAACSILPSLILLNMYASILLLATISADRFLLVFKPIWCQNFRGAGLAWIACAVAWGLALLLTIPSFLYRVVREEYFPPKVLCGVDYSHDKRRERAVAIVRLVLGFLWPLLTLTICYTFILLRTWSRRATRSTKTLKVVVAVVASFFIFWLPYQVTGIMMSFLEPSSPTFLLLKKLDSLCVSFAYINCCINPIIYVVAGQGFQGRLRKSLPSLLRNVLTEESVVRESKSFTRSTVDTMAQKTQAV

Molecule: CCCn1c(=O)c2[nH]c(C3CCCC3)nc2n(CCC)c1=O [CPX, 8-cyclo-pentyl-1,3-dipropylxanthine]
- efficacy in treating mild cystic fibrosis [1]: somewhat effective

Molecule: O=c1c(O)c(-c2ccc(O)c(O)c2)oc2cc(O)cc(O)c12 [quercetin]
- Cl- secretion [2]: induce Cl^− secretion

Molecule: CNc1ccc2oc(C[C@H]3O[C@@]4(CC[C@H]3C)O[C@H]([C@H](C)C(=O)c3ccc[nH]3)[C@H](C)C[C@H]4C)nc2c1C(=O)O [A23187, calcimycin]
- Solubility ([3]; in DMSO): 50 mg/mL (≈ 95.5 mM)
- Solubility ([3]; in EtOH): 5 mg/mL (≈ 9.55 mM)

Molecule: IL-8: chemokine released on activation of innate immunity, activates CXCR2
- basal levels of Cl- transport ([4]; Calu-3 cells, via CXCR2/b, FIG. 9): inhibits
- cAMP dependent Cl- efflux ([4]; FIG. 10): inhibits

Molecule: CC(C)Cn1c(=O)n(C)c(=O)c2[nH]cnc21 [IBMX]
- activity of mutant CFTR, chloride transport function [5]: able to stimulate some activity

B1: C5a: proinflammatory anaphylatoxin peptide generated during complement activation, acts through C5aR (protein, UniProt P01031 678-751, looked up)
C5a anaphylatoxin: TLQKKIEEIAAKYKHSVVKKCCYDGACVNNDETCEQRAARISLGPRCIKAFTECCVVASQLRANISHKDMQLGR
modifications: C5a anaphylatoxin
- adenylyl cyclase activity [6]: inhibits
- basal Cl- efflux (C5aR (CD88); Calu-3 cells, via C5aR (CD88), FIG. 7): inhibits
- cAMP dependent Cl- efflux (C5aR (CD88); FIG. 8): inhibits
